{"source": "paper PMC7915026", "about": "“Sulfaguanidine Hybrid with Some New Pyridine-2-One Derivatives: Design, Synthesis, and Antimicrobial Activity against Multidrug-Resistant Bacteria as Dual DNA Gyrase and DHFR Inhibitors” (Antibiotics, 2021)", "key": {"neutrophils": {"test_system": "neutrophils", "assay": "In vitro intracellular killing, nitro blue tetrazolium (NBT) reduction assay", "type": "cell-based", "protocol": "One of the broad methods used for determining immune disorders for patients in hospitals is the NBT test to measure their immune responses. The reduction in NBT dye provides information about the phagocytic and intracellular killing functions of neutrophils, which are important for microbiocidal activity. The most promising derivatives (2a, 2b, 2d, 3a, 8, and 11) were evaluated against in vitro intracellular killing activities using a nitro blue tetrazolium (NBT) reduction assay and the obtained results expressed in percentage (%): increasing the percentage led to an improvement in the killing ability of the neutrophils used as innate immunity.\nIn vitro intracellular killing activities for the most promising six derivatives 2a, 2b, 2d, 3a, 8, and 11 were performed according to reported methods."}, "P. aeruginosa ATCC 27853": {"test_system": "P. aeruginosa ATCC 27853", "assay": "MIC and MBC determination", "type": "cell-based", "settings": "Pseudomonas aeruginosa, ATCC27853, P. aeruginosa"}}}
{"smiles": "COc1ccc(/C=C(\\C#N)C(=O)Nc2ccc(S(=O)(=O)NC(=N)N)cc2)cc1O", "note": "[Compound 2d, N-(4-(N-Carbamimidoylsulfamoyl)phenyl)-2-cyano-3-(3-hydroxy-4-methoxyphenyl) acryl-amide]", "values": [{"measurement": "Intracellular Killing Activity", "setting": "neutrophils", "result": "142.4 ± 0.98", "unit": "%"}, {"measurement": "MBC", "setting": "P. aeruginosa ATCC 27853; read-out: MBC", "result": "25.5 ± 0.65", "unit": "µM"}, {"measurement": "MIC", "setting": "P. aeruginosa ATCC 27853; read-out: MIC", "result": "13.4 ± 0.25", "unit": "µM"}]}
